Measurements from patent US10899710B2, “Pyridines and their use in the treatment of cancer” (The United States of America, as represented by the …, priority 2015, dated 2021).
Structures can show the parent of a compound that is named as a salt. Where two headings read alike, the source gives them in different places.

Assays:
[1] = target: T1, recombinant thioredoxin reductase 1 (TrxR1) (Homo sapiens, UniProt Q16881); experiment: Inhibition of recombinant TrxR1 (DTNB assay); assay type: biochemical; conditions: read-out: TrxR inhibition (IC50)
T1 sequence (Q16881 151-649 limits assumed): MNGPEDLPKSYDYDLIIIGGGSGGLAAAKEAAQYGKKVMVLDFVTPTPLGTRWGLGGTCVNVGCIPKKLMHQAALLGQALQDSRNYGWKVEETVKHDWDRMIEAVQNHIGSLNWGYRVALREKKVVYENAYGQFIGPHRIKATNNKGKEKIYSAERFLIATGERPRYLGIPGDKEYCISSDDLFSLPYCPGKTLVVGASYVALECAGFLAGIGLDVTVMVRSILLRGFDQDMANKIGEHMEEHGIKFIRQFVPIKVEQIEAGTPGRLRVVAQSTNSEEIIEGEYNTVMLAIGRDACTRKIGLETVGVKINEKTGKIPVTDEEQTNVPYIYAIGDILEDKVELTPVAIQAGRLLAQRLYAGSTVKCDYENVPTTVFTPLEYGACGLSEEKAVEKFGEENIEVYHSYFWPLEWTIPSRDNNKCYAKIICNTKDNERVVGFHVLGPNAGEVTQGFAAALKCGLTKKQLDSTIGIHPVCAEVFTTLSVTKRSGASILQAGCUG
Description: (§1) Small molecule inhibition of recombinant thioredoxin reductase 1 (TrxR1) and gluthathione reductase (GR) was examined in 96-well plate format. 15 nM TrxR1 was incubated in the presence of 250 μM NADPH, 0.1 mg/ml BSA, and various concentrations of the compound of Example 1 (1% DMSO final) in 50 mM Tris (pH 7.5) and 2 mM EDTA buffer for 15 minutes. Following the incubation period, 2.5 mM DTNB was added to each well and the change in O.D. at 412 nm was followed. Percent activity was determined using DMSO vehicle and no TrxR1 (blank) controls. 2 nM GR was incubated in the presence of 250 μM NADPH, 0.1 mg/ml BSA, and various concentrations of compounds (1% DMSO final) in 50 mM Tris (pH 7.5) and 2 mM EDTA buffer for 15 minutes. Following the incubation period, 1 mM GSSG was added to each well and the change in O.D. at 340 nm was followed. Percent activity was determined using DMSO vehicle and no GR (blank) controls.

[2] = target: T2, gluthathione reductase (GR) (Homo sapiens, UniProt P00390); experiment: Inhibition of recombinant GR (GSSG assay); assay type: biochemical
T2 sequence (P00390 44-522): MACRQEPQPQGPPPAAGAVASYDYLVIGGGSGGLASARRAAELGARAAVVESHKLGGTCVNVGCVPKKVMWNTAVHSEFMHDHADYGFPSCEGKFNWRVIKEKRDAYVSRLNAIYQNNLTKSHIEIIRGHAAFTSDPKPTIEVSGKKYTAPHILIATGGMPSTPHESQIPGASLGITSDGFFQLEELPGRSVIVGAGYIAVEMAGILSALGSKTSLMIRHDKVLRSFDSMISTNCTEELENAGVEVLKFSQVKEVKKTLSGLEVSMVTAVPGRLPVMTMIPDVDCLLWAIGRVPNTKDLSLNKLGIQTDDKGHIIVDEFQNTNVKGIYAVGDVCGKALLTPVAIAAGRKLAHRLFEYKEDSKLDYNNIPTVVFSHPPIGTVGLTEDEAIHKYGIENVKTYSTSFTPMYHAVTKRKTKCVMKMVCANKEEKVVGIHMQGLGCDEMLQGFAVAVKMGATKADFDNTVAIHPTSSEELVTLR
Description: as §1

FaDu cell line = experiment: Cell viability inhibition, FaDu cell line; assay type: cell-based; conditions: Homo sapiens, Biological Example 4, 72 hrs
Description: Cell lines were plated 2000 cells/well in 96-well black optical plates in the presence of 10% FBS media containing 25 nM selenite. The following day cells were treated with various concentrations of the compound of Example 1 (0.1% DMSO final) and incubated for 72 hrs. After the incubation Cell-Quanti Blue reagent was added to each well and incubated for additional 3 hrs. Fluorescence was read ex:530 nm/em:590 nm, and percent of viability was determined using DMSO vehicle and no cell (blank) controls.
Using the assays described in Biological Example 1 to assess inhibition of recombinant TrxR1 and GR, the following IC50 values were obtained for the examples described herein. Further, following the protocol described in Biological Example 2, the following IC50 values were obtained for inhibition of cell viability using the FaDu cell line.

[3] = Biological Example 1, 15 nM TrxR1, 15 minutes incubation
[4] = Biological Example 1, 2 nM GR, 15 minutes incubation

| Compound | IC50 [1, 3] [nM] | IC50 ([1]; Biological Example 4) [nM] | IC50 [2, 4] [nM] | IC50 ([2]; Biological Example 4) [nM] | IC50 (FaDu cell line) [nM] |
| --- | --- | --- | --- | --- | --- |
| O=[N+]([O-])c1cccnc1S(=O)(=O)c1ccccc1 [Example 2, 3-Nitro-2-(phenylsulphonyl)pyridine Trifluoroacetate] | 155 | 289 | > 100000 | > 100000 | 1420 |
| Cc1ccc(S(=O)(=O)c2ncccc2[N+](=O)[O-])cc1 [Example 3, 3-Nitro-2-tosylpyridine Hydrochloride] | 282 | 221 | > 100000 | > 100000 | 2550 |
| COc1ccc([N+](=O)[O-])c(S(=O)(=O)c2ccccc2)n1 [Example 4, 6-Methoxy-3-nitro-2-(phenylsulphonyl)pyridine Trifluoroacetate] | 24 | 24 | 25200 | 30800 | 3260 |
| O=[N+]([O-])c1cccnc1S(=O)(=O)c1ccc(Cl)cc1 [Example 5, 2-((4-Chlorophenyl)sulphonyl)-3-nitropyridine Trifluoroacetate] | 98 | 151 | 47900 | 93000 | 1840 |
| COc1ccc([N+](=O)[O-])c(S(=O)(=O)c2ccc(C)cc2)n1 [Example 6, 6-Methoxy-3-nitro-2-tosylpyridine] | – | 103 | – | > 100000 | 1380 |
| COc1ccc(S(=O)(=O)c2nc(OC)ccc2[N+](=O)[O-])cc1 [Example 7, 6-Methoxy-2-((4-methoxyphenyl)sulfonyl)-3-nitropyridine] | – | 228 | – | > 100000 | 2750 |
| O=[N+]([O-])c1ccc(Cl)nc1S(=O)(=O)c1ccc(Cl)cc1 [Example 8, 6-Chloro-2-((4-chlorophenyl)sulfonyl)-3-nitropyridine] | – | 16 | – | 3570 | 840 |
| COc1ccc(S(=O)(=O)c2nc(Cl)ccc2[N+](=O)[O-])cc1 [Example 9, 6-Chloro-2-((4-methoxyphenyl)sulfonyl)-3-nitropyridine] | – | 70 | – | 41700 | 510 |
| O=[N+]([O-])c1ccc(Cl)nc1S(=O)(=O)c1ccccc1 [Example 10, 6-Chloro-3-nitro-2-(phenylsulfonyl)pyridine] | – | 56 | – | 14500 | 250 |
| Cc1ccc(S(=O)(=O)c2nc(Cl)ccc2[N+](=O)[O-])cc1 [Example 11, 6-Chloro-3-nitro-2-tosylpyridine] | – | 40 | – | 23700 | 390 |
| COc1ccc(S(=O)(=O)c2nc(N(C)C)ccc2[N+](=O)[O-])cc1 [Example 12, 6-((4-Methoxyphenyl)sulfonyl)-N,N-dimethyl-5-nitropyridin-2-amine] | – | 513 | – | > 100000 | 7890 |
| CN(C)c1ccc([N+](=O)[O-])c(S(=O)(=O)c2ccc(Cl)cc2)n1 [Example 13, 6-((4-Chlorophenyl)sulfonyl)-N,N-dimethyl-5-nitropyridin-2-amine] | – | 176 | – | > 100000 | 12900 |
| CN(C)c1ccc([N+](=O)[O-])c(S(=O)(=O)c2ccccc2)n1 [Example 14, N,N-dimethyl-5-nitro-6-(phenylsulfonyl)pyridin-2-amine] | – | 345 | – | > 100000 | 5320 |
| Cc1ccc(S(=O)(=O)c2nc(N(C)C)ccc2[N+](=O)[O-])cc1 [Example 15, N,N-dimethyl-5-nitro-6-tosylpyridin-2-amine] | – | 438 | – | > 100000 | 5910 |
